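Five concentrations, 48 hours, 96-well plates. At the GI50, growth is halved. The concentration for full growth arrest is given as TGI.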
Columns and labels:
Assay in all cases: NCI-60 cell line screen, 48 h
RPMI-8226 leukemia = tested on: RPMI-8226 leukemia
A498 renal = tested on: A498 renal
IGROV1 ovarian = tested on: IGROV1 ovarian
RXF 393 renal = tested on: RXF 393 renal
HL-60(TB) leukemia = tested on: HL-60(TB) leukemia
U251 CNS = tested on: U251 CNS
K-562 leukemia = tested on: K-562 leukemia
HCT-116 colon = tested on: HCT-116 colon
NCI-H460 lung = tested on: NCI-H460 lung
HT29 colon = tested on: HT29 colon
MALME-3M melanoma = tested on: MALME-3M melanoma
UACC-257 melanoma = tested on: UACC-257 melanoma
NCI/ADR-RES ovarian = tested on: NCI/ADR-RES ovarian
KM12 colon = tested on: KM12 colon
ACHN renal = tested on: ACHN renal
PC-3 prostate = tested on: PC-3 prostate
M14 melanoma = tested on: M14 melanoma
OVCAR-5 ovarian = tested on: OVCAR-5 ovarian
HS 578T breast = tested on: HS 578T breast
SF-268 CNS = tested on: SF-268 CNS
SW-620 colon = tested on: SW-620 colon
SK-MEL-28 melanoma = tested on: SK-MEL-28 melanoma
CCRF-CEM leukemia = tested on: CCRF-CEM leukemia
MCF7 breast = tested on: MCF7 breast
NCI-H522 lung = tested on: NCI-H522 lung
UACC-62 melanoma = tested on: UACC-62 melanoma
SK-MEL-2 melanoma = tested on: SK-MEL-2 melanoma
COLO 205 colon = tested on: COLO 205 colon
A549 NSCLC = tested on: A549 NSCLC
NCI-H226 lung = tested on: NCI-H226 lung
OVCAR-4 ovarian = tested on: OVCAR-4 ovarian
786-0 renal = tested on: 786-0 renal
SK-OV-3 ovarian = tested on: SK-OV-3 ovarian
NCI-H23 lung = tested on: NCI-H23 lung
MDA-MB-435 = tested on: MDA-MB-435
HCC-2998 colon = tested on: HCC-2998 colon
BT-549 breast = tested on: BT-549 breast
HOP-62 NSCLC = tested on: HOP-62 NSCLC
CAKI-1 renal = tested on: CAKI-1 renal
MDA-MB-231 breast = tested on: MDA-MB-231 breast
SNB-19 CNS = tested on: SNB-19 CNS
OVCAR-8 ovarian = tested on: OVCAR-8 ovarian
UO-31 renal = tested on: UO-31 renal
T-47D breast = tested on: T-47D breast
TK-10 renal = tested on: TK-10 renal
SK-MEL-5 melanoma = tested on: SK-MEL-5 melanoma
DU-145 prostate = tested on: DU-145 prostate
SNB-75 CNS = tested on: SNB-75 CNS
SR leukemia = tested on: SR leukemia
SN12C renal = tested on: SN12C renal
HCT-15 colon = tested on: HCT-15 colon
OVCAR-3 ovarian = tested on: OVCAR-3 ovarian
SF-295 CNS = tested on: SF-295 CNS
SF-539 CNS = tested on: SF-539 CNS
LOX IMVI melanoma = tested on: LOX IMVI melanoma

For `COc1ccc(-n2c(C)cc(-c3ccccc3)c2C)cc1`, which GI50 (RPMI-8226 leukemia) is on record?
Its GI50 is 1.49 µM.

What about the TGI (RPMI-8226 leukemia) of the same molecule?
Its TGI is 5.02 µM.

And the GI50 (A498 renal)?
The GI50 was 0.637 µM.

And the TGI (A498 renal)?
The TGI was 9 µM.

And the GI50 (IGROV1 ovarian)?
The GI50 was 4.23 µM.

What about the TGI (IGROV1 ovarian) of the same molecule?
The TGI was 34.8 µM.

What about the GI50 (RXF 393 renal) of the same molecule?
The GI50 was 1.7 µM.

What about the TGI (RXF 393 renal) of the same molecule?
The TGI was 5.31 µM.

What about the GI50 (HL-60(TB) leukemia) of the same molecule?
Its GI50 is 2.88 µM.

And the TGI (HL-60(TB) leukemia)?
Its TGI is 9.92 µM.

What about the GI50 (U251 CNS) of the same molecule?
Its GI50 is 2.87 µM.

What about the TGI (U251 CNS) of the same molecule?
The TGI was 25.4 µM.

And the GI50 (K-562 leukemia)?
The GI50 was 1.4 µM.

What about the TGI (K-562 leukemia) of the same molecule?
Its TGI is greater than 100 µM.

What about the GI50 (HCT-116 colon) of the same molecule?
The GI50 was 2.11 µM.

And the TGI (HCT-116 colon)?
Its TGI is 16.1 µM.

And the GI50 (NCI-H460 lung)?
Its GI50 is 3.13 µM.

What about the TGI (NCI-H460 lung) of the same molecule?
Its TGI is 18.9 µM.

And the GI50 (HT29 colon)?
Its GI50 is 1.89 µM.

What about the TGI (HT29 colon) of the same molecule?
Its TGI is 7.23 µM.

What about the GI50 (MALME-3M melanoma) of the same molecule?
Its GI50 is 1.78 µM.

What about the TGI (MALME-3M melanoma) of the same molecule?
The TGI was 4.53 µM.

And the GI50 (UACC-257 melanoma)?
The GI50 was 2.33 µM.

And the TGI (UACC-257 melanoma)?
Its TGI is 7.51 µM.

What about the GI50 (NCI/ADR-RES ovarian) of the same molecule?
Its GI50 is 3.33 µM.

What about the TGI (NCI/ADR-RES ovarian) of the same molecule?
Its TGI is 21.5 µM.

What about the GI50 (KM12 colon) of the same molecule?
Its GI50 is 2.85 µM.

What about the TGI (KM12 colon) of the same molecule?
Its TGI is 35.3 µM.

And the GI50 (ACHN renal)?
Its GI50 is 2.82 µM.

What about the TGI (ACHN renal) of the same molecule?
Its TGI is 33.3 µM.

And the GI50 (PC-3 prostate)?
The GI50 was 2.22 µM.

And the TGI (PC-3 prostate)?
Its TGI is greater than 100 µM.

And the GI50 (M14 melanoma)?
The GI50 was 2.59 µM.

What about the TGI (M14 melanoma) of the same molecule?
Its TGI is 9.14 µM.

What about the GI50 (OVCAR-5 ovarian) of the same molecule?
Its GI50 is 2.48 µM.

And the TGI (OVCAR-5 ovarian)?
The TGI was 14.6 µM.

And the GI50 (HS 578T breast)?
The GI50 was 4.58 µM.

What about the TGI (HS 578T breast) of the same molecule?
Its TGI is greater than 100 µM.

And the GI50 (SF-268 CNS)?
The GI50 was 4.46 µM.

And the TGI (SF-268 CNS)?
The TGI was 33.3 µM.

What about the GI50 (SW-620 colon) of the same molecule?
The GI50 was 2.14 µM.

What about the TGI (SW-620 colon) of the same molecule?
The TGI was 12.5 µM.

What about the GI50 (SK-MEL-28 melanoma) of the same molecule?
The GI50 was 3.68 µM.

And the TGI (SK-MEL-28 melanoma)?
The TGI was greater than 100 µM.

What about the GI50 (CCRF-CEM leukemia) of the same molecule?
The GI50 was 2.16 µM.

And the TGI (CCRF-CEM leukemia)?
The TGI was 9.16 µM.

What about the GI50 (MCF7 breast) of the same molecule?
The GI50 was 3.58 µM.

And the TGI (MCF7 breast)?
Its TGI is greater than 100 µM.

What about the GI50 (NCI-H522 lung) of the same molecule?
The GI50 was 1.48 µM.

And the TGI (NCI-H522 lung)?
Its TGI is 4.68 µM.

What about the GI50 (UACC-62 melanoma) of the same molecule?
The GI50 was 2.01 µM.

What about the TGI (UACC-62 melanoma) of the same molecule?
Its TGI is 12.8 µM.

What about the GI50 (SK-MEL-2 melanoma) of the same molecule?
Its GI50 is 1.7 µM.

And the TGI (SK-MEL-2 melanoma)?
Its TGI is 3.93 µM.

And the GI50 (COLO 205 colon)?
The GI50 was 2.42 µM.

And the TGI (COLO 205 colon)?
The TGI was 5.95 µM.

What about the GI50 (A549 NSCLC) of the same molecule?
Its GI50 is 2.88 µM.

What about the TGI (A549 NSCLC) of the same molecule?
Its TGI is 38.7 µM.

And the GI50 (NCI-H226 lung)?
Its GI50 is 5.75 µM.

And the TGI (NCI-H226 lung)?
Its TGI is 31.2 µM.

What about the GI50 (OVCAR-4 ovarian) of the same molecule?
The GI50 was 2.46 µM.

And the TGI (OVCAR-4 ovarian)?
The TGI was greater than 100 µM.

What about the GI50 (786-0 renal) of the same molecule?
The GI50 was 1.94 µM.

And the TGI (786-0 renal)?
The TGI was 4.85 µM.

And the GI50 (SK-OV-3 ovarian)?
The GI50 was 6.83 µM.

And the TGI (SK-OV-3 ovarian)?
Its TGI is 68.6 µM.

And the GI50 (NCI-H23 lung)?
Its GI50 is 2.16 µM.

And the TGI (NCI-H23 lung)?
The TGI was 16.2 µM.

What about the GI50 (MDA-MB-435) of the same molecule?
The GI50 was 1.56 µM.

And the TGI (MDA-MB-435)?
The TGI was 5.58 µM.

And the GI50 (HCC-2998 colon)?
The GI50 was 3.04 µM.

What about the TGI (HCC-2998 colon) of the same molecule?
The TGI was 11.4 µM.

What about the GI50 (BT-549 breast) of the same molecule?
Its GI50 is 2.63 µM.

And the TGI (BT-549 breast)?
Its TGI is 9.98 µM.

What about the GI50 (HOP-62 NSCLC) of the same molecule?
The GI50 was 6.68 µM.

What about the TGI (HOP-62 NSCLC) of the same molecule?
Its TGI is 67.8 µM.

What about the GI50 (CAKI-1 renal) of the same molecule?
The GI50 was 1.57 µM.

And the TGI (CAKI-1 renal)?
The TGI was 7.55 µM.

What about the GI50 (MDA-MB-231 breast) of the same molecule?
Its GI50 is 1.56 µM.

What about the TGI (MDA-MB-231 breast) of the same molecule?
Its TGI is 3.66 µM.

What about the GI50 (SNB-19 CNS) of the same molecule?
Its GI50 is 8.41 µM.

And the TGI (SNB-19 CNS)?
The TGI was greater than 100 µM.

What about the GI50 (OVCAR-8 ovarian) of the same molecule?
Its GI50 is 3.51 µM.

What about the TGI (OVCAR-8 ovarian) of the same molecule?
Its TGI is 38 µM.

What about the GI50 (UO-31 renal) of the same molecule?
Its GI50 is 2.24 µM.

And the TGI (UO-31 renal)?
The TGI was 95.8 µM.

And the GI50 (T-47D breast)?
Its GI50 is 1.65 µM.

And the TGI (T-47D breast)?
Its TGI is 67.2 µM.

What about the GI50 (TK-10 renal) of the same molecule?
The GI50 was 3.28 µM.

And the TGI (TK-10 renal)?
The TGI was 16.5 µM.

What about the GI50 (SK-MEL-5 melanoma) of the same molecule?
Its GI50 is 1.77 µM.

And the TGI (SK-MEL-5 melanoma)?
Its TGI is 4.86 µM.

And the GI50 (DU-145 prostate)?
The GI50 was 4.66 µM.

And the TGI (DU-145 prostate)?
The TGI was 22.3 µM.

What about the GI50 (SNB-75 CNS) of the same molecule?
Its GI50 is 3.37 µM.

And the TGI (SNB-75 CNS)?
The TGI was greater than 100 µM.

What about the GI50 (SR leukemia) of the same molecule?
Its GI50 is 1.3 µM.

What about the TGI (SR leukemia) of the same molecule?
The TGI was 5.75 µM.

And the GI50 (SN12C renal)?
Its GI50 is 2.84 µM.

What about the TGI (SN12C renal) of the same molecule?
The TGI was greater than 100 µM.

And the GI50 (HCT-15 colon)?
The GI50 was 1.95 µM.

And the TGI (HCT-15 colon)?
The TGI was 13.3 µM.

What about the GI50 (OVCAR-3 ovarian) of the same molecule?
Its GI50 is 2.61 µM.

And the TGI (OVCAR-3 ovarian)?
Its TGI is 10.7 µM.

What about the GI50 (SF-295 CNS) of the same molecule?
The GI50 was 2.2 µM.

What about the TGI (SF-295 CNS) of the same molecule?
Its TGI is 7.58 µM.

What about the GI50 (SF-539 CNS) of the same molecule?
The GI50 was 2.96 µM.

What about the TGI (SF-539 CNS) of the same molecule?
The TGI was 17.4 µM.

And the GI50 (LOX IMVI melanoma)?
The GI50 was 2.55 µM.

And the TGI (LOX IMVI melanoma)?
Its TGI is 11.9 µM.

What does the source list for `C[C@H]1[C@H](C)CC[C@]2(C(=O)Nc3ccc4ncccc4c3)CC[C@]3(C)C(=CC[C@@H]4[C@@]5(C)CCCNC(C)(C)[C@@H]5CC[C@]43C)[C@H]12`?
GI50 (A498 renal): 1.56 µM; TGI (A498 renal): 2.96 µM; GI50 (IGROV1 ovarian): 1.7 µM; TGI (IGROV1 ovarian): 3.37 µM; GI50 (HCT-116 colon): 1.6 µM; TGI (HCT-116 colon): 3.11 µM; GI50 (NCI-H460 lung): 1.94 µM; TGI (NCI-H460 lung): 3.82 µM; GI50 (M14 melanoma): 1.94 µM; TGI (M14 melanoma): 3.59 µM; GI50 (SW-620 colon): 1.8 µM; TGI (SW-620 colon): 3.37 µM; GI50 (UACC-62 melanoma): 1.74 µM; TGI (UACC-62 melanoma): 3.23 µM; GI50 (SK-MEL-2 melanoma): 1.84 µM; TGI (SK-MEL-2 melanoma): 3.43 µM; GI50 (SK-MEL-5 melanoma): 1.85 µM; TGI (SK-MEL-5 melanoma): 3.32 µM

From PubChem BioAssay (NCI)
